Where two headings read alike, the source gives them in different places.
Target: human ALK5 (Homo sapiens (Human), UniProt P36897)
Assay: ADP-GLO Kinases assay, inhibition of ALK5 enzymatic activity
Type: biochemical
Procedure: The enzymatic activity of compounds of the present invention was monitored measuring the formation of ADP using the ADP-GLO Kinases assay. Following the incubation of the purified enzyme, a substrate and ATP, the produced ADP was converted into ATP, which in turn was converted into light by Ultra-Glo Luciferase. The luminescent signal positively correlated with ADP amount and kinase activity. Briefly, the kinase reaction was performed by incubating 2.6 nM of the purified, commercially available human ALK5 (recombinant TGF β1 N-term GST-tagged, 80-end), a final concentration of TGFβ1 peptide 94.5 μM (Promega, T36-58) and ultra-pure ATP (Promega V915B). […] All reactions/incubations were performed at 25° C. Compound and ALK5 kinase were mixed and incubated for 15 mins. Reactions were initiated by addition of ATP at a final concentration in the assay of 0.83 μM. After an incubation of 150 min, the reaction was stopped, and ADP production detected with ADP-Glo kit according to manufacturer's indications. The assay was performed in 384-well format and was validated using a selection of reference compounds that was tested in 11 point concentration-response curve.

[1] = Table 4, potency bins, purified recombinant human ALK5, ADP-Glo, 25° C., read-out: ALK5 IC50

human ALK5, sequence (P36897 80-503 limits assumed): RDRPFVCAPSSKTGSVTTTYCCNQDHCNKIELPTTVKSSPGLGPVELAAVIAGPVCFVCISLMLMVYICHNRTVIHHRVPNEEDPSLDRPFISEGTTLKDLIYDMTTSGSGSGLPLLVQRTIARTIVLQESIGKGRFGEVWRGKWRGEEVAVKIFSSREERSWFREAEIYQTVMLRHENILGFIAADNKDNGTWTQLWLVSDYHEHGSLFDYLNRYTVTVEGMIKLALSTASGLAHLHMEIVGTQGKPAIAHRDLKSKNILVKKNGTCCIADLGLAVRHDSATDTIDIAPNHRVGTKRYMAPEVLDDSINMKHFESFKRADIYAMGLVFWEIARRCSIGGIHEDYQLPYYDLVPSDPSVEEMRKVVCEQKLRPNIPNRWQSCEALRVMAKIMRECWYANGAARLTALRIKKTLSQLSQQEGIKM

IC50 [1] | IC50 (Table 5, comparative examples, same in vitro assay, read-out: ALK5 IC50) | IC50 (statements in running text, read-out: potency (IC50) with respect to inhibitory activity on ALK5) | SMILES
< 1 nM | – | – | CN1CCN(CCC(=O)Nc2cc(N3CCOc4cnc(-c5cc(C6CC6)ccc5F)cc43)ccn2)CC1 [Example 33, N-{4-[7-(5-cyclopropyl-2-fluorophenyl)-1H,2H,3H-pyrido[3,4-b][1,4]oxazin-1-yl]pyridin-2-yl}-3-(4-methylpiperazin-1-yl)propanamide]
– | 9200 nM | > 9000 nM | Fc1ccc(Cl)cc1-c1cc2c(cn1)OCCN2c1ccn[nH]1 [Example C1, 5-[7-(5-chloro-2-fluorophenyl)-1H,2H,3H-pyrido[3,4-b][1,4]oxazin-1-yl]-1H-pyrazole, reference compound]
< 1 nM | – | – | CN1CC2(C1)CN(CC(=O)Nc1cc(N3CCOc4cnc(-c5cc(Cl)ccc5F)cc43)ccn1)CCO2 [Example 54, N-{4-[7-(5-chloro-2-fluorophenyl)-1H,2H,3H-pyrido[3,4-b][1,4]oxazin-1-yl]pyridin-2-yl}-2-{2-methyl-5-oxa-2,8-diazaspiro[3.5]nonan-8-yl}acetamide]
< 1 nM | – | – | CN(CCO)CCC(=O)Nc1cc(N2CCOc3cnc(-c4cc(Cl)ccc4F)cc32)ccn1 [Example 20, N-{4-[7-(5-chloro-2-fluorophenyl)-1H,2H,3H-pyrido[3,4-b][1,4]oxazin-1-yl]pyridin-2-yl}-3-[(2-hydroxyethyl)(methyl)amino] propanamide]
5 to 10 nM | – | – | Nc1nc(-c2cc(Cl)ccc2F)cc2c1OCCN2c1ccncc1 [Example 2, 7-(5-chloro-2-fluorophenyl)-1-(pyridin-4-yl)-1H,2H,3H-pyrido[3,4-b][1,4]oxazin-5-amine]
1 to 5 nM | – | – | Fc1ccc(Cl)cc1-c1cc2c(cn1)OCCN2c1ccnc2[nH]ncc12 [Example 15, 7-(5-chloro-2-fluorophenyl)-1-{1H-pyrazolo[3,4-b]pyridin-4-yl}-1H,2H,3H-pyrido[3,4-b][1,4]oxazine]
< 1 nM | – | – | O=C(CCN1CCNCC1)Nc1cc(N2CCOc3cnc(-c4cc(Cl)ccc4F)cc32)ccn1 [Example 10, N-{4-[7-(5-chloro-2-fluorophenyl)-1H,2H,3H-pyrido[3,4-b][1,4]oxazin-1-yl]pyridin-2-yl}-3-(piperazin-1-yl)propanamide]
< 1 nM | – | – | CS(=O)(=O)NCCC(=O)Nc1cc(N2CCOc3cnc(-c4cc(Cl)ccc4F)cc32)ccn1 [Example 24, N-{4-[7-(5-chloro-2-fluorophenyl)-1H,2H,3H-pyrido[3,4-b][1,4]oxazin-1-yl]pyridin-2-yl}-3-methanesulfonamidopropanamide]
< 1 nM | – | – | CS(=O)(=O)CCNCCC(=O)Nc1cc(N2CCOc3cnc(-c4cc(Cl)ccc4F)cc32)ccn1 [Example 26, N-{4-[7-(5-chloro-2-fluorophenyl)-1H,2H,3H-pyrido[3,4-b][1,4]oxazin-1-yl]pyridin-2-yl}-3-[(2-methanesulfonylethyl)amino] propanamide]
< 1 nM | – | – | CN1CCN(CCNC(=O)Nc2cc(N3CCOc4cnc(-c5cc(Cl)ccc5F)cc43)ccn2)CC1 [Example 55, 1-(4-(7-(5-chloro-2-fluorophenyl)-2,3-dihydro-1H-pyrido[3,4-b][1,4]oxazin-1-yl)pyridin-2-yl)-3-(2-(4-methylpiperazin-1-yl)ethyl)urea]
< 1 nM | – | – | CN1CC2(C1)CN(CC(=O)Nc1cc(N3CCOc4cnc(-c5cc(Cl)ccc5F)cc43)ccn1)C2 [Example 53, N-{4-[7-(5-chloro-2-fluorophenyl)-1H,2H,3H-pyrido[3,4-b][1,4]oxazin-1-yl]pyridin-2-yl}-2-{6-methyl-2,6-diazaspiro[3.3]heptan-2-yl}acetamide]
< 1 nM | – | – | CN1CC2CC1CN2CC(=O)Nc1cc(N2CCOc3cnc(-c4cc(Cl)ccc4F)cc32)ccn1 (stereo not shown) [Example 52, N-{4-[7-(5-chloro-2-fluorophenyl)-1H,2H,3H-pyrido[3,4-b][1,4]oxazin-1-yl]pyridin-2-yl}-2-{5-methyl-2,5-diazabicyclo[2.2.1]heptan-2-yl}acetamide]

Reference: US20240116947A1, “PYRIDO OXAZINE DERIVATIVES AS ALK5 INHIBITORS” (CHIESI FARMACEUTICI S.P.A., priority 2020, published 2024)
